# From patent publication US8410168B2, “Methods and compositions for treating ophthalmic conditions with retinyl derivatives” (Acucela, Inc., priority 2004, dated 2013)
# Entries after “also recorded” stand apart in the source; their conditions may differ.
# Key:
# CRALBP = target: T1, CRALBP (Homo sapiens, UniProt P12271); experiment: Fluorescence quenching study of binding to CRALBP
# T1 construct: made in house
# Description: Apo-CRALBP at 0.5 μM was incubated with 1 μM of 11-cis Retinal (11cRAL), all-trans retinal (atRAL) or N-4-hydroxyphenyl retinamide (HPR) in PBS at room temperature for 1 hour. As a control, same volume of DMSO was added to the Apo-CRABLP solution. The emission spectra were measured between 290 nm to 500 nm with excitation wavelength at 280 nm and 2 nm bandpass (See FIG. 7).
# Quenching of CRALBP protein fluorescence with 11-cis retinal (11cRAL). The fluorescence emission of recombinant apo-CRALBP (0.5 μM) was measured using 280 nm excitation (“no 11cRAL”).
# Quenching of CRALBP protein fluorescence with HPR. The data shown were obtained using an experimental design identical to that described above. The fluorescence emission of recombinant apo-CRALBP was measured using 280 nm excitation (“no HPR”).
# (§1) We performed an analysis of the dissociation constant (KD) for 11cRAL and HPR binding to apo-CRALBP (see FIG. 15). […] This calculation is based upon the ligand concentration necessary to fully quench the protein fluorescence. The data reveal that both 11cRAL and HPR quench apo-CRALBP fluorescence maximally at ˜1.5 μM. Thus, although apo-CRALBP is described as an 11 cis-specific retinoid binding protein, it appears to bind HPR as well.
# [1] = HPR concentration in the RPE of treated mice; type: in vivo
# Description: We examined the effects on HPR on enzymes or proteins of the visual cycle using in vitro biochemical assays. Specifically, the utilization of exogenous all-trans retinol by membranes prepared from bovine RPE was studied. […] Steady-state levels of HPR in the RPE (determined from mice which have been given 20 mg/kg HPR, i.p., daily for 28 days) range from 5-10 μM. With this in mind, we examined the effects of 10 μM HPR on production of all-trans retinyl esters and 11-cis retinol in assays similar to those described above. […] In the presence of endogenous retinoids, utilization of exogenous all-trans retinol is extremely low and 11-cis retinol is produced solely from the endogenous all-trans retinyl esters. […] Thus, the retinoic acids appear to affect at least two targets in the visual cycle. We have determined that HPR-induced reduction of 11-cis retinol biosynthesis occurs via LRAT inhibition and reduction in all-trans retinyl ester levels. In this situation, the isomerase enzyme is starved for substrate and 11-cis retinol production declines.
# as §1
# A second target for HPR in the visual cycle was identified using in vitro biochemical assays. Lecithin retinol acyl transferase (LRAT) catalyzes the conversion of retinol into retinyl esters. LRAT is critical not only for retinol-retinyl ester homeostasis but also for generation of substrate for visual chromophore biosynthesis. The data shown in panel A of FIG. 16 illustrate the inhibitory effect of HPR on the rate of retinyl ester synthesis. […] In a separate study, we have determined that HPR concentrations in the RPE approach 10 μM with a 10 mg/kg dose of HPR.
# RBP = RBP (Homo sapiens, UniProt P02753); experiment: Competition binding assay, RBP-retinol/HPR, fluorescence; settings: physiological temperature (37 C)
# Text: Based upon these findings, we sought to further explore the mechanism(s) of retinol reduction during HPR treatment. A tenable hypothesis is that HPR may displace retinol by competing at the retinol binding site on RBP. […] Therefore, one can measure displacement of retinol from the RBP holoprotein by observing decreases in both protein (340 nm) and retinol (470 nm) fluorescence. We performed a competition binding assay using RBP-retinol/HPR concentrations which were similar to those determined from the 14 day trial at 20 mg/kg HPR described above. […] In the control assays, decreases in retinol fluorescence were associated with concomitant increases in protein fluorescence, see FIG. 3a. This effect was determined to be due to temperature effects as the dissociation constant of RBP-retinol increases (decreased affinity) with increased time at 37 C.
# abca4 null mutant mice = experiment: A2PE-H2 and A2E as a function of HPR dose, 28 days; type: in vivo, mouse; settings: HPR daily for 28 days, several doses
# Description: Group averages from the data shown in panels A-G of FIG. 18 in Example 25 (28 day time points) are plotted to illustrate the strong correlation between increases in serum HPR and decreases in serum retinol (see FIG. 12). Reductions in serum retinol are highly correlated with reductions in A2E and precursor compounds (A2PE-H2). A pronounced reduction in A2PE-H2 in the 2.5 mg/kg dosage group (˜47%) is observed when the serum retinol reduction is only 20%. The reason for this disproportionate reduction is related to the inherently lower ocular retinoid content in this group of 2-month old animals compared to the other groups. It is likely that if these animals had been maintained on the 2.5 mg/kg dose for a more prolonged period, a greater reduction in A2E would also be realized.
# ABCA4 null mutant mice were given the indicated dose of HPR in DMSO or DMSO alone daily for 28 days (n=16 mice per treatment group). At study onset, mice in the 2.5 mg/kg group were 2 months of age, mice in the other treatment groups were 3 months of age. At the indicated times, representative mice were taken from each group (n=4) for analysis of A2E precursor compounds (see FIG. 18, A2PE-H2, panels A, C and E) and A2E (see FIG. 18, panels B, D and F). […] Sample extracts were analyzed by LC. […]
# abcr null mutant mice = experiment: Lipofuscin autofluorescence in RPE and light microscopy of retina; type: in vivo, mouse; settings: 28 days of HPR
# Description: Treatment conditions are as described above.
# HPR (10 mg/kg in DMSO) was administered to ABCA4−/− mice daily for a period of 28 days. Control ABCA4−/− mice received only DMSO for the same period. […] Importantly, the observed reductions in lipofuscin autofluorescence persist long after cessation of HPR therapy. HPR (10 mg/kg), or DMSO, administration was discontinued following 28 days of treatment and re-evaluated A2E and precursor levels after 2 weeks and after 4 weeks.
# T1 sequence (P12271 whole entry, species assumed): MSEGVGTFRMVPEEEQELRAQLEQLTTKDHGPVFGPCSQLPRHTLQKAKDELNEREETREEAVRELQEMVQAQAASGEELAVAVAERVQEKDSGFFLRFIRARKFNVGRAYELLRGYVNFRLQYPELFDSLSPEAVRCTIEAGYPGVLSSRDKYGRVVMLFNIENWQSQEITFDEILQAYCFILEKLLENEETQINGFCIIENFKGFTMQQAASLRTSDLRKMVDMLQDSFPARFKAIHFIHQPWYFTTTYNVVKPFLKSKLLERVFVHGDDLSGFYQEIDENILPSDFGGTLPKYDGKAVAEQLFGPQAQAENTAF
smiles,measurement,setting,value
"CC1=C(/C=C/C(C)=C/C=C/C(C)=C/C(=O)Nc2ccc(O)cc2)C(C)(C)CCC1 [HPR, N-(4-hydroxyphenyl)retinamide]",concentration of maximal quenching of apo-CRALBP fluorescence,CRALBP,~1.5 µM
same,quenching of CRALBP fluorescence emission,"CRALBP; 0.5 μM apo-CRALBP, 1 μM ligand, 1 hour, vs DMSO",lowest
same,concentration dependence of CRALBP protein fluorescence quenching,"CRALBP; 0.5 μM recombinant apo-CRALBP, 280 nm excitation",concentration dependent manner
same,Kd,"CRALBP; transformation of fluorescence quenching data, read-out: dissociation constant (KD) for binding to apo-CRALBP",~30 nM
same,HPR concentrations in the RPE,[1]; 10 mg/kg dose of HPR,~10 µM
same,concentration at 28 days,"[1]; BL6/129, mouse, RPE (retinal pigment epithelium), intraperitoneal, 20 mg/kg HPR, i.p., daily for 28 days, read-out: steady-state levels of HPR in the RPE",5 to 10 µM
same,concentrations of HPR in the RPE during the animal trials,[1]; even at the lowest dose of 2.5 mg/kg,exceed 30 nM
same,displacement of retinol from RBP-retinol holoprotein,RBP,efficiently displaces retinol
same,A2PE-H2 and A2E during the study period,abca4 null mutant mice,dose-dependent reductions
same,lipofuscin autofluorescence in the RPE,abcr null mutant mice,significantly reduces; also recorded: comparable to levels observed in untreated wild type mice
same,retinal morphology by light microscopy,abcr null mutant mice,No aberrant morphology or compromise of the integrity in retinal cytostructure was observed; also recorded: no alteration of retina cytostructure or morphology
